From patent US20250090699A1, “FAP TARGETING CYCLIC PEPTIDES AND CONJUGATES THEREOF” (Novartis AG, priority 2023, published 2025)
Counter-ions that a name gives are not always drawn. Non-standard residues stand in square brackets, D forms with d. Residues, ends and D or L forms follow the SMILES beside them. Trp(7-OMe) = COc1cccc2c(C[C@H](N)C(=O)O)c[nH]c12; AEF = NCCOc1ccc(C[C@H](N)C(=O)O)cc1; NMeCba = CN[C@@H](CC1CCC1)C(=O)O; NMeF = CN[C@@H](Cc1ccccc1)C(=O)O; Ahp(2) = CCCCC[C@H](N)C(=O)O; Cba = N[C@@H](CC1CCC1)C(=O)O; hSer = N[C@@H](CCO)C(=O)O

Experiments:
[1] = target: T1, mouse FAP (Mus musculus, UniProt P97321); assay: Surface plasmon resonance (SPR) for peptide affinity, mouse FAP; format: binding
T1 construct: biotinylated His, Avi tag, mouse FAP (26-761, FAP-M82Q5); His; Avi tag (biotinylated); purchased AcroBiosystems FAP-M82Q5
T1 sequence (P97321 26-761): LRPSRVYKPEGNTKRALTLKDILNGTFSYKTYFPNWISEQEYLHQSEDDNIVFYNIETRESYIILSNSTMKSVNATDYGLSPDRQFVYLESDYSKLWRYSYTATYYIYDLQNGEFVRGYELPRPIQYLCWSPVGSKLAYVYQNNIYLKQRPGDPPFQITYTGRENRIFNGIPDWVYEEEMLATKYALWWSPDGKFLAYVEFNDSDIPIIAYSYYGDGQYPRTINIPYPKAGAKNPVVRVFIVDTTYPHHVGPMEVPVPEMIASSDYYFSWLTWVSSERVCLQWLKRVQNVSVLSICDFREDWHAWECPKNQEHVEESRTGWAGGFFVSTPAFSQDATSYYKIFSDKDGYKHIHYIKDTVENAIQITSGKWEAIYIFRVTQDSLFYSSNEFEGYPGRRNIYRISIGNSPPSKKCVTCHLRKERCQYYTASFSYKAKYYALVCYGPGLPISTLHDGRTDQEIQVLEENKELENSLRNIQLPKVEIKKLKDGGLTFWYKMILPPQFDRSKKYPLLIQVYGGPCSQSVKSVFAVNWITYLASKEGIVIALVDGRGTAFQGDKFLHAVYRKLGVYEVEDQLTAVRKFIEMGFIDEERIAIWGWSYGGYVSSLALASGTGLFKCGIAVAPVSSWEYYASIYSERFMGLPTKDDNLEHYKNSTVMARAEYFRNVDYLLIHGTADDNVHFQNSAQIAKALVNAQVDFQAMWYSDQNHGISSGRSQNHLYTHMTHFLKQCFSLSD
How it was run: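 Biotinylated His/Avi-tagged FAP ectodomains (human 26-760, mouse 26-761) captured or immobilized on Biacore sensor chips; peptides run at 25 °C in HBS-EP+ pH 7.6 with 2% DMSO, single-cycle kinetics, 8 concentrations. KD from 1:1 binding-model fit of sensorgrams.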

[2] = target: T1, mouse FAP; assay: Enzymatic FAP competition assay (Z-Gly-Pro-AMC fluorescence), mouse FAP; format: biochemical; details: read-out: m. FAP, Enz., IC50
How it was run: (§1)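 Biotinylated His/Avi-tagged FAP ectodomain (human 26-760, mouse 26-761) at 0.01 nM, preincubated 24 h with peptides (14 concentrations, up to 1 μM) in pH 7.5 phosphate, 150 mM NaCl, 0.05% Tween20, 1% DMSO. Then 50 μM Z-Gly-Pro-AMC, 4 h at 22-24° C; AMC fluorescence (380/460 nm) gave IC50 from duplicate points.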

[3] = target: T2, human FAP (Homo sapiens, UniProt Q12884); assay: Enzymatic FAP competition assay (Z-Gly-Pro-AMC fluorescence), human FAP; format: biochemical; details: read-out: h. FAP, Enz., IC50
T2 construct: the biotinylated His, Avi tag, human FAP (26-760, FAP-H82Q6); His; Avi tag (biotinylated); purchased AcroBiosystems FAP-H82Q6
T2 sequence (Q12884 26-760): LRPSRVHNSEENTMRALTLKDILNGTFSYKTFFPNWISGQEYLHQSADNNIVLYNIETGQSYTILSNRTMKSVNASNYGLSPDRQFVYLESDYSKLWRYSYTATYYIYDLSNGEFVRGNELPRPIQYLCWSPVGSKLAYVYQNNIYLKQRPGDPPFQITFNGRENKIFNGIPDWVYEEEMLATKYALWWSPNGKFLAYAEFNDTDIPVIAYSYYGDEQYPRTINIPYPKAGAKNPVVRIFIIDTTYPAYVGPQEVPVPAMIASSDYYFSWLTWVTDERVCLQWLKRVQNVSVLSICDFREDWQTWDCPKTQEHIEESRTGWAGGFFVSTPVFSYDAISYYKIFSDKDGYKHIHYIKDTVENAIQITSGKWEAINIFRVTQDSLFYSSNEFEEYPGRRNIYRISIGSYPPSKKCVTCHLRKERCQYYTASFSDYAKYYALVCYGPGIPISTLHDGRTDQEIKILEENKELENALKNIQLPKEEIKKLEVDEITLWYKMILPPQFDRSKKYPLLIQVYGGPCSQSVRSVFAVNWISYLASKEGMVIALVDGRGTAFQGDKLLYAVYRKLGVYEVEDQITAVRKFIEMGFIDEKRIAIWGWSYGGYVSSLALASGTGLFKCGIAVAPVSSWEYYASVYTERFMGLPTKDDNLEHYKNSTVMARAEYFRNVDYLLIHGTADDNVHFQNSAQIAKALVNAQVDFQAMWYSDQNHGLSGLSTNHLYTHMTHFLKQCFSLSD
How it was run: as §1

## CCCCC[C@@H]1NC(=O)[C@H](Cc2ccc(O)cc2)NC(=O)[C@H](Cc2ccccc2)N(C)C(=O)CNC(=O)CNC(=O)[C@H]2CCCN2C(=O)[C@H](C)NC(=O)[C@H](Cc2ccc(O)cc2)NC(=O)CNC(=O)[C@H](Cc2c[nH]c3ccccc23)NC1=O [Example A56, Gly-Gly-NMePhe-Tyr-Ahp-Trp-Gly-Tyr-Ala-D-Pro] (cyclo(A[dP]GG[NMeF]Y[Ahp(2)]WGY))
[1]
  Kd: 32 nM
[2]
  IC50: 31 nM
[3]
  IC50: 4.2 nM

## CCCCC[C@@H]1NC(=O)[C@H](Cc2ccc(O)cc2)NC(=O)[C@H](Cc2ccccc2)N(C)C(=O)CNC(=O)CNC(=O)[C@H]2CCCN2C(=O)[C@H](CCO)NC(=O)[C@H](Cc2ccc(O)cc2)NC(=O)CNC(=O)[C@H](Cc2c[nH]c3ccccc23)NC1=O [Example A57, Gly-Gly-NMePhe-Tyr-Ahp-Trp-Gly-Tyr-hSer-D-Pro] (cyclo([Ahp(2)]WGY[hSer][dP]GG[NMeF]Y))
[1]
  Kd: 19 nM
[2]
  IC50: 25 nM
[3]
  IC50: 6.6 nM

## CCCCC[C@@H]1NC(=O)[C@H](Cc2ccc(O)cc2)NC(=O)[C@H](Cc2ccccc2)N(C)C(=O)CNC(=O)CNC(=O)[C@H]2CCCN2C(=O)[C@H](CC(N)=O)NC(=O)[C@H](Cc2ccc(O)cc2)NC(=O)CNC(=O)[C@H](Cc2c[nH]c3ccccc23)NC1=O [Example A58, Gly-Gly-NMePhe-Tyr-Ahp-Trp-Gly-Tyr-Asn-D-Pro] (cyclo([Ahp(2)]WGYN[dP]GG[NMeF]Y))
[1]
  Kd: 75 nM
[2]
  IC50: 46 nM
[3]
  IC50: 19 nM

## CCCCC[C@@H]1NC(=O)[C@H](Cc2ccc(OCCN)cc2)NC(=O)[C@H](Cc2ccccc2)N(C)C(=O)CNC(=O)CNC(=O)[C@H]2CCCN2C(=O)[C@H](CC(=O)O)NC(=O)[C@H](Cc2ccc(O)cc2)NC(=O)CNC(=O)[C@H](Cc2c[nH]c3ccccc23)NC1=O [Example A59, Gly-Gly-NMePhe-F(4OEtNH2)-Ahp-Trp-Gly-Tyr-Asp-D-Pro, TFA salt] (cyclo([AEF][Ahp(2)]WGYD[dP]GG[NMeF]))
[1]
  Kd: 0.38 nM
[2]
  IC50: 0.49 nM
[3]
  IC50: 0.136 nM

## CCCCC[C@@H]1NC(=O)[C@H](Cc2ccc(O)cc2)NC(=O)[C@H](CC2CCC2)NC(=O)CNC(=O)CNC(=O)[C@H]2CCCN2C(=O)[C@H](CC(=O)O)NC(=O)[C@H](Cc2ccc(O)cc2)NC(=O)CNC(=O)[C@H](Cc2c[nH]c3ccccc23)NC1=O [Example A60, Gly-Gly-cBuA-Tyr-Ahp-Trp-Gly-Tyr-Asp-D-Pro] (cyclo([Ahp(2)]WGYD[dP]GG[Cba]Y))
[1]
  Kd: 0.05 nM
[2]
  IC50: 0.127 nM
[3]
  IC50: 0.041 nM

## CCCCC[C@@H]1NC(=O)[C@H](Cc2ccc(O)cc2)NC(=O)[C@H](Cc2ccccc2)N(C)C(=O)CNC(=O)CNC(=O)[C@H]2CCCN2C(=O)[C@H](CC(=O)O)NC(=O)[C@H](Cc2ccc(O)cc2)NC(=O)CNC(=O)[C@H](Cc2c[nH]c3c(OC)cccc23)NC1=O [Example A61, Gly-Gly-NMePhe-Tyr-Ahp-W(7OMe)-Gly-Tyr-Asp-D-Pro] (cyclo([Ahp(2)][Trp(7-OMe)]GYD[dP]GG[NMeF]Y))
[1]
  Kd: 0.162 nM
[2]
  IC50: 0.3 nM
[3]
  IC50: 0.065 nM

## CCCCC[C@@H]1NC(=O)[C@H](Cc2ccc(O)cc2)NC(=O)[C@H](CC2CCC2)N(C)C(=O)CNC(=O)CNC(=O)[C@H]2CCCN2C(=O)[C@H](CC(=O)O)NC(=O)[C@H](Cc2ccc(O)cc2)NC(=O)CNC(=O)[C@H](Cc2c[nH]c3ccccc23)NC1=O [Example A62, Gly-Gly-NMecBuA-Tyr-Ahp-Trp-Gly-Tyr-Asp-D-Pro] (cyclo([Ahp(2)]WGYD[dP]GG[NMeCba]Y))
[1]
  Kd: 0.32 nM
[2]
  IC50: 0.31 nM
[3]
  IC50: 0.063 nM
